# Test results published in US7285564B2, “Substituted 4-amino-1-(pyridylmethyl)piperidine and related compounds” (Theravance, Inc., priority 2002, dated 2007).
# pKi: −log10 of the molar value.
# Biological target: T1, hM2 receptor (Homo sapiens, UniProt P08172)
# T1 construct: expressed in transfected cells; membranes prepared
# T1 sequence (P08172 1-466): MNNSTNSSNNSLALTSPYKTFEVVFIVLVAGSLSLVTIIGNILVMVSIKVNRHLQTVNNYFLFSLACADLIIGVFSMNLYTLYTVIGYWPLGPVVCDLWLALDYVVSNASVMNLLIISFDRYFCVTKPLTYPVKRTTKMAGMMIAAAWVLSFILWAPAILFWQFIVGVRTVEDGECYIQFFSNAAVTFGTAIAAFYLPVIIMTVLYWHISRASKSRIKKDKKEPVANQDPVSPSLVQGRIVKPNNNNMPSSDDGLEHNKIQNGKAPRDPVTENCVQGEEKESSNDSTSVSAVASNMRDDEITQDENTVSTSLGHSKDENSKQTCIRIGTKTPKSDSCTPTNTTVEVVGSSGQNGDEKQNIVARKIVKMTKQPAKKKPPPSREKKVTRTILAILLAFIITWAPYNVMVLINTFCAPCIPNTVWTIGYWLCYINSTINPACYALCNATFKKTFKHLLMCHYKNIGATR
# Assay: Blockade of agonist-mediated inhibition of cAMP accumulation
# Assay type: cell-based
# Details: CHO-K1 cells expressing the hM2 receptor; read-out: Ki for blockade of oxotremorine-inhibition of forskolin-mediated cAMP accumulation
# Procedure: In this assay, the functional potency of a test compound was determined by measuring the ability of the test compound to block oxotremorine-inhibition of forskolin-mediated cAMP accumulation in CHO-K 1 cells expressing the hM2 receptor.
# cAMP assays were performed in a radioimmunoassay format using the Flashplate Adenylyl Cyclase Activation Assay System with ^125]-cAMP (NEN SMP004B, PerkinElmer Life Sciences Inc., Boston, Mass.), according to the manufacturer's instructions.
# CHO-K1 cells stably expressing cloned human M2 muscarinic receptors were grown to near confluency in a 5% CO2, 37° C. incubator in medium consisting of HAM's F-12 supplemented with 10% FBS (Fetal Bovine Serum) and 250 μg/mL Geneticin. […] The cell pellet was then re-suspended in 10 mL dPBS, and the cells were counted with a Coulter Z1 Dual Particle Counter (Beckman Coulter, Fullerton, Calif.). […]
# Reactions were incubated for 10 minutes at 37° C. and stopped by addition of 100 μL ice-cold detection buffer. Plates were sealed, incubated overnight at room temperature and counted the next morning on a PerkinElmer TopCount liquid scintillation counter (PerkinElmer Inc., Wellesley, Mass.). The amount of cAMP produced (pmol/well) was calculated based on the counts observed for the samples and cAMP standards, as described in the manufacturer's user manual. […]
compound,measurement,value
COc1ccncc1CN1CCC(N(CCCCCCCN2CC[C@@H](C(C(N)=O)(c3ccccc3)c3ccccc3)C2)C(C)C)CC1 [Example 1],pKi,> 9.00
